# Reference: patent publication US7033509B2 (priority 2000, dated 2006)
# Where “and” joins values, the source holds several entries; their conditions need not be identical. Identical values can stand only once. Like-named read-outs stand apart in the source and are kept apart here.
# What was measured:
# [1] = system: bacteria on the surface of peach; assay type: cell-based
# [2] = system: fungi on the surface of peach; assay type: cell-based
# [3] = system: bacteria on the surface of potato; assay type: cell-based
# [4] = system: fungi on the surface of potato; assay type: cell-based
# [5] = system: bacteria on the surface of lettuce; assay type: cell-based
# [6] = system: fungi on the surface of lettuce; assay type: cell-based
# [7] = system: bacteria on the surface of apple; assay type: cell-based
# [8] = system: fungi on the surface of apple; assay type: cell-based
# [9] = system: bacteria on the surface of strawberry; assay type: cell-based
# [10] = system: fungi on the surface of strawberry; assay type: cell-based
# [11] = system: bacteria on the surface of avocado; assay type: cell-based
# [12] = system: fungi on the surface of avocado; assay type: cell-based
# [13] = system: bacteria on the surface of rockmelon; assay type: cell-based
# [14] = system: fungi on the surface of rockmelon; assay type: cell-based
# [15] = system: bacteria on the surface of orange; assay: Orange (L) laboratory dipping, bacteria; assay type: cell-based; conditions: concentrations of 3, 10 & 30 ppm iodine used
# [16] = system: fungi on the surface of orange; assay: Orange (L) laboratory dipping, fungi; assay type: cell-based; conditions: concentrations of 3, 10 & 30 ppm iodine used
# [17] = system: bacteria on the surface of nectarine; assay: Nectarine (L) laboratory dipping, bacteria; assay type: cell-based; conditions: concentrations of 3, 10 & 30 ppm iodine used
# [18] = system: fungi on the surface of nectarine; assay: Nectarine (L) laboratory dipping, fungi; assay type: cell-based; conditions: concentrations of 3, 10 & 30 ppm iodine used
# [19] = system: bacteria on the surface of potato; assay: Potato (L) laboratory dipping, bacteria; assay type: cell-based; conditions: concentrations of 3, 10 & 30 ppm iodine used
# [20] = system: fungi on the surface of potato; assay: Potato (L) laboratory dipping, fungi; assay type: cell-based; conditions: concentrations of 3, 10 & 30 ppm iodine used
# [21] = system: bacteria on the surface of tomato; assay: Tomato (L) laboratory dipping, bacteria; assay type: cell-based; conditions: 10, 20, 30 ppm iodine
# [22] = system: fungi on the surface of tomato; assay: Tomato (L) laboratory dipping, fungi; assay type: cell-based; conditions: 10, 20, 30 ppm iodine
# [23] = system: bacteria on the surface of lettuce; assay: Lettuce (L) laboratory dipping, bacteria; assay type: cell-based; conditions: 10, 20, 30 ppm iodine
# [24] = system: fungi on the surface of lettuce; assay: Lettuce (L) laboratory dipping, fungi; assay type: cell-based; conditions: 10, 20, 30 ppm iodine
# bacteria on bean sprouts = assay: Bean sprouts (ISU), bacteria; assay type: cell-based; conditions: 10, 20, 30 ppm iodine
# fungi on bean sprouts = assay: Bean sprouts (ISU), fungi; assay type: cell-based; conditions: 10, 20, 30 ppm iodine
# [25] = system: bacteria and fungi found on fresh fruit and vegetables; assay: Summary of efficacy results: comparison bacteria/fungi and iodine/chlorine; assay type: cell-based
# [26] = system: naturally occurring surface organisms on fruits and vegetables; assay: Dipping time effect on efficacy (potatoes, oranges); assay type: cell-based, bacteria and fungi; conditions: iodine dips, one to four minutes
# Escherichia coli = conditions: compared with chlorine, especially at the higher temperature and pH values; cited from earlier work
compound,measurement,setting,value
II,Bacteria—dose for ~1.5 log10 reduction,[1],10 ppm
same,Fungi—dose for ~1.5 log10 reduction,[2],30 ppm
same,Bacterial population per cm^2 Actual count,[3],370 per cm^2 and 260 per cm^2 and 249 per cm^2
same,Bacterial population per cm^2 Log10 count,[3],2.54 log10 units and 2.34 log10 units and 2.38 log10 units
same,Bacterial population per cm^2 Log10 reduction,[3],0.39 ab log10 units and 0.58 b log10 units and 0.54 b log10 units
same,Bacteria—dose for ~1.5 log10 reduction,[3],>30 ppm
same,Fungal population per cm^2 Actual count,[4],2 per cm^2 and 3 per cm^2
same,Fungi—dose for ~1.5 log10 reduction,[4],10 ppm
same,Bacteria—dose for ~1.5 log10 reduction,[5],20 ppm
same,Fungal population per cm^2 Log10 count,[6],−0.12 log10 units and −0.35 log10 units
same,Fungi—dose for ~1.5 log10 reduction,[6],10 ppm
same,Bacteria—dose for ~1.5 log10 reduction,[7],10 ppm
same,Fungi—dose for ~1.5 log10 reduction,[8],10 ppm
same,Bacteria—dose for ~1.5 log10 reduction,[9],>30 ppm
same,Fungi—dose for ~1.5 log10 reduction,[10],30 ppm
same,Bacteria—dose for ~1.5 log10 reduction,[11],10 ppm
same,Fungi—dose for ~1.5 log10 reduction,[12],20 ppm
same,Bacterial population per cm^2 Actual count,[13],"19,514 per cm^2 and 14,456 per cm^2 and 10,028 per cm^2"
same,Bacterial population per cm^2 Log10 count,[13],4.26 log10 units and 4.15 log10 units and 3.98 log10 units
same,Bacterial population per cm^2 Log10 reduction,[13],0.83 b log10 units and 0.93 bc log10 units and 1.10 cd log10 units
same,Bacteria—dose for ~1.5 log10 reduction,[13],>30 ppm
same,Fungi—dose for ~1.5 log10 reduction,[14],20 ppm
same,Bacteria—dose for ~1.5 log10 reduction,[15],30 ppm
same,Fungi—dose for ~1.5 log10 reduction,[16],30 ppm
same,Bacteria—dose for ~1.5 log10 reduction,[17],3.3 ppm
same,Fungi—dose for ~1.5 log10 reduction,[18],10 ppm
same,Bacteria—dose for ~1.5 log10 reduction,[19],>30 ppm
same,Fungi—dose for ~1.5 log10 reduction,[20],>30 ppm
same,Bacteria—dose for ~1.5 log10 reduction,[21],20 ppm
same,Fungi—dose for ~1.5 log10 reduction,[22],20 ppm
same,Bacteria—dose for ~1.5 log10 reduction,[23],30 ppm
same,Fungi—dose for ~1.5 log10 reduction,[24],>30 ppm
same,Bacteria—dose for ~1.5 log10 reduction,bacteria on bean sprouts,30 ppm
same,Fungi—dose for ~1.5 log10 reduction,fungi on bean sprouts,30 ppm
same,Better Control of Bacteria/Fungi,[25]; Apples (ISU),Fungi
same,Better control by iodine/chlorine,[25]; Apples (ISU),Iodine
same,Better Control of Bacteria/Fungi,[25]; Avocado (ISU),Bacteria
same,Better control by iodine/chlorine,[25]; Avocado (ISU),Iodine
same,Better control by iodine/chlorine,[25]; Bean sprouts (ISU),Iodine
same,Better Control of Bacteria/Fungi,[25]; Lettuce (ISU),Fungi
same,Better control by iodine/chlorine,[25]; Lettuce (ISU),Iodine
same,Better Control of Bacteria/Fungi,[25]; Lettuce (L),Bacteria
same,Better control by iodine/chlorine,[25]; Lettuce (L),Chlorine
same,Better Control of Bacteria/Fungi,[25]; Nectarine (L),Bacteria
same,Better control by iodine/chlorine,[25]; Nectarine (L),Iodine
same,Better Control of Bacteria/Fungi,[25]; Orange (L),Bacteria
same,Better control by iodine/chlorine,[25]; Orange (L),Chlorine
same,Better Control of Bacteria/Fungi,[25]; Peach (L),Bacteria
same,Better control by iodine/chlorine,[25]; Peach (L),Iodine
same,Better Control of Bacteria/Fungi,[25]; Potato (ISU),Fungi
same,Better control by iodine/chlorine,[25]; Potato (ISU),Iodine
same,Better Control of Bacteria/Fungi,[25]; Potato (L),Fungi
same,Better control by iodine/chlorine,[25]; Potato (L),Iodine
same,Better Control of Bacteria/Fungi,[25]; Rockmelon (ISU),Fungi
same,Better control by iodine/chlorine,[25]; Rockmelon (ISU),Same effectiveness
same,Better Control of Bacteria/Fungi,[25]; Strawberry (ISU),Fungi
same,Better control by iodine/chlorine,[25]; Strawberry (ISU),Iodine
same,Better Control of Bacteria/Fungi,[25]; Tomato (L),Fungi
same,Better control by iodine/chlorine,[25]; Tomato (L),Iodine
same,effectiveness compared with an equivalent concentration of chlorine,[25]; over the range of products and concentrations used,considerably more effective
same,effect of dip time on effectiveness,[26],equivalent in effectiveness to doubling the dip concentration
same,efficiency for the control of Escherichia coli in dirty water,Escherichia coli,greater than that of chlorine
